Assay results: paper PMC4746387, “A Bioactivity-Based Method for Screening, Identification of Lipase Inhibitors, and Clarifying the Effects of Processing Time on Lipase Inhibitory Activity of Polygonum Multiflorum” (Evidence-based Complementary and Alternative Medicine : eCAM, 2016)
Like-named read-outs stand apart in the source and are kept apart here.

Columns and labels:
lipase [1] = biological target: T1, lipase (Sus scrofa, UniProt P00591); experiment: Assay for lipase inhibitory activity (4-methylumbelliferyl oleate substrate, fluorescence of 4-methylumbelliferone); format: biochemical; conditions: for lipase inhibition ratio: at the concentration of 1.0 mg/mL; for IC50: reference standards (purity > 98%), eight diluted concentrations, 25°C, 20 min
T1 construct: purchased Solar Bio Science Co. Ltd. (Beijing, China) L3126
T1 sequence (P00591 1-450): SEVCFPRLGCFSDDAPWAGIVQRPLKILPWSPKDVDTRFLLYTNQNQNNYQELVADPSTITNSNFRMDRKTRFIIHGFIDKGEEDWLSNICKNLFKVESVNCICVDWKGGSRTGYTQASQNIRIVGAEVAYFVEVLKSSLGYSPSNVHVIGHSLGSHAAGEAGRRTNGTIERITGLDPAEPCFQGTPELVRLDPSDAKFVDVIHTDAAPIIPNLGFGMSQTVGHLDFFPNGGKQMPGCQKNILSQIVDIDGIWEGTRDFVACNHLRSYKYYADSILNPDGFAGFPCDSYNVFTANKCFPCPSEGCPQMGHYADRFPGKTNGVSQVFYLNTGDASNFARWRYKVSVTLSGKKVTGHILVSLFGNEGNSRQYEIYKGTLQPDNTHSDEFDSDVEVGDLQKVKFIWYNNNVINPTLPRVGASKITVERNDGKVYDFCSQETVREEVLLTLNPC
Experimental: 4-Methylumbelliferyl oleate (4.406 mg) was accurately weighed and dissolved by Tris-HCl solution (pH 8.0, 1.3 mM NaCl, and 1.3 mM CaCl2) with the final concentration of 0.1 mM. 100 mg lipase was dissolved with deionized water and the insoluble substances were removed by centrifugation at 14,000 rpm for 10 min. Finally, the concentration of enzyme solution was 1.0 mg/mL.
Gallic acid, catechin, epicatechin, polydatin, 2,3,5,4′-tetrahydroxystilbene-2-O-β-D-glucoside, resveratrol, emodin-8-O-glucoside, physcion-8-O-glucoside, rhein, emodin, and physcion with the concentration of 1.0 mg/mL were prepared in methanol for quality control. Rhein, emodin, and physcion were dissolved in DMSO (Dimethyl Sulfoxide) with suitable concentrations. The reference standards solution was diluted serially with 10% methanol for the bioassays. The concentrations of DMSO in a series of samples at different concentrations were less than 0.1% (v/v). […] It was prepared with 10% methanol and diluted to a series of different concentrations.
(§1) The assay of lipase was performed according to previous method with slight modifications. 25 μL test samples and 25 μL lipase solution were mixed together. Then, 50 μL 4-methylumbelliferyl oleate was added to the mixture. After incubating at 25°C for 20 min, 100 μL sodium citrate (0.1 M, pH 4.2) was added to stop the reaction. Finally, the amount of 4-methylumbelliferone released by lipase was measured by microplate reader at an excitation wavelength of 355 nm and an emission wavelength of 460 nm. The inhibitory activity was calculated by the formula: inhibition (%) = [1 − (A sample/A control)] × 100, where A sample and A control were absorbance of the test sample and the control, respectively.
In the bioassay experiments, all the analysis was carried out in triplicate. All values were expressed in the form of mean ± standard deviation (SD); IC50 values were determined by Graph Pad Prism 5 software.

lipase [2] = biological target: T1, lipase; experiment: Lipase inhibitory activity of enriched UHPLC fractions of P. multiflorum extract and their contribution to total activity (orlistat potency units); format: biochemical; conditions: for lipase inhibitory effect of fractions of peaks: fractions of P. multiflorum extract enriched for 40 and 60 times, Figure 1; for contribution to the total lipase inhibitory activity: potency of individual fraction/total lipase inhibitory × 100%, orlistat equivalent potency units
Experimental: When the P. multiflorum extract was injected into the UHPLC system, the fraction collector (BSZ-100, Shanghai QingpuHuxi Instrument, Shanghai, China) was used for the fraction collection by setting the time interval at 20 s. Then, the fractions were collected and evaporated to dryness by nitrogen gas. The residues were reconstituted and diluted for bioassays.
as §1
The extract was injected in UHPLC for the separation of the components and all fractions were collected for the bioassays. The lipase inhibitory effect was expressed as inhibition ratio (%), which could be calculated by the above mentioned formula. The time interval of fraction collector was set at 20 s according to the resolution and peak shape in the chromatogram. […] The fractions from the same peak were combined.
The potency calibration curve was constructed by plotting the potency (y) against the corresponding inhibition ratio (x). […] Then, the potency of the enriched fractions was determined by the curve mentioned above. […] The contribution of individual fractions was calculated by the formula: contribution (%) = potency of individual fraction/the total lipase inhibitory × 100%.

[3] = read-out: IC50 (μg/mL) (converted)

SMILES	lipase inhibition ratio (lipase [1])	lipase inhibitory effect of fractions of peaks (lipase [2])	IC50 (lipase [1]; [3])	IC50 (lipase [1])	contribution to the total lipase inhibitory activity (lipase [2])
Oc1cc(O)c2c(c1)O[C@H](c1ccc(O)c(O)c1)[C@H](O)C2 [Epicatechin]	≤ 50%	relatively weak inhibitory effect			
Oc1ccc(/C=C/c2cc(O)cc(O)c2)cc1 [Resveratrol]		strong inhibition	2470 µM		
O=C(O)c1cc(O)c2c(c1)C(=O)c1cccc(O)c1C2=O [Rhein]		strong inhibition	813 µM		
OC[C@H]1O[C@@H](Oc2cc(O)cc(/C=C/c3ccc(O)cc3)c2)[C@H](O)[C@@H](O)[C@@H]1O [Polydatin]		relatively weak inhibitory effect			
Cc1cc(O[C@@H]2O[C@H](CO)[C@@H](O)[C@H](O)[C@H]2O)c2c(c1)C(=O)c1cc(O)cc(O)c1C2=O [Emodin-8-O-glucoside]		strong inhibition		296.0 µg/mL	less than 10%
COc1cc(O)c2c(c1)C(=O)c1cc(C)cc(O)c1C2=O [Physcion]		strong inhibition	2860 µM		less than 10%
COc1cc(O)c2c(c1)C(=O)c1cc(C)cc(OC3OC(CO)C(O)C(O)C3O)c1C2=O (stereo not shown) [Physcion-8-O-glucoside]		strong inhibition		421.5 µg/mL	
Cc1cc(O)c2c(c1)C(=O)c1cc(O)cc(O)c1C2=O [Emodin]		strong inhibition	1290 µM		less than 10%
O.Oc1cc(O)c2c(c1)O[C@H](c1ccc(O)c(O)c1)[C@@H](O)C2 [Catechin]	≤ 50%	relatively weak inhibitory effect			
O=C(O)c1cc(O)c(O)c(O)c1 [Gallic acid]	≤ 50%	relatively weak inhibitory effect			
